Assay results from ChEMBL document CHEMBL4219231, “Nε-Acryloyllysine Piperazides as Irreversible Inhibitors of Transglutaminase 2: Synthesis, Structure-Activity Relationships, and Pharmacokinetic Profiling” (J Med Chem, 2018).
The source made the active and inactive calls. No cut-off for these calls is given here.

Tests used:
[1] = target: T1, Protein-glutamine gamma-glutamyltransferase (Homo sapiens, UniProt P21980); experiment: Inhibition of human TGase 2 using R-I-Cad/DMC as substrate preincubated for 5 mins followed by substrate addition measured at 30 secs interval over 900 secs by fluorescence anisotropy assay
T1 sequence (P21980 whole entry): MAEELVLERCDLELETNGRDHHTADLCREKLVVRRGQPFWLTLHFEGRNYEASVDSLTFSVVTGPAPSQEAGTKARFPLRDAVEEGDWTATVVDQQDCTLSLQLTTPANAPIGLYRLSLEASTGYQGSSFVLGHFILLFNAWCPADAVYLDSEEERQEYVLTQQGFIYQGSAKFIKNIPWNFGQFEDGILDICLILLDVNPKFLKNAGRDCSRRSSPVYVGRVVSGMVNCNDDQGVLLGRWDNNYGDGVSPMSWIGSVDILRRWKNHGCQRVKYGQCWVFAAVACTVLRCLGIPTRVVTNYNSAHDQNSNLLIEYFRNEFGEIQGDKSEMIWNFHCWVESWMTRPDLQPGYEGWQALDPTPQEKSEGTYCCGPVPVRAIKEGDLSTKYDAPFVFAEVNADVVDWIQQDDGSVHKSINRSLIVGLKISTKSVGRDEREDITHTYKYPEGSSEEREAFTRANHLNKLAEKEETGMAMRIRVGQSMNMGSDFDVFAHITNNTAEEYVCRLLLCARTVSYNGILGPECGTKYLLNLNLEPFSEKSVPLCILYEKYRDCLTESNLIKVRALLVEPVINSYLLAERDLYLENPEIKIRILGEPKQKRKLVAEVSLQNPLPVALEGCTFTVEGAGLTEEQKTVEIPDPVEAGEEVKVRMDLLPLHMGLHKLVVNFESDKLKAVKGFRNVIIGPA

[2] = Inhibition of guinea pig TGase 2 using F-Cad/DMC as substrate preincubated for 30 mins followed by substrate addition measured at 30 secs interval over 900 secs by fluorescence anisotropy assay; parameters: species or system Cavia porcellus
[3] = target: T1, Protein-glutamine gamma-glutamyltransferase; experiment: Reversible inhibition of human TGase 2 using Z-Glu(HMC)-Gly-OH as substrate measured at 20 secs interval over 900 secs by fluorimetric assay
[4] = target: T1, Protein-glutamine gamma-glutamyltransferase; experiment: Irreversible inhibition of human TGase 2 using Z-Glu(HMC)-Gly-OH as substrate measured at 20 secs interval over 900 secs by fluorimetric assay
[5] = n-octanol-phosphate buffer partition coefficient, log D of compound at pH 7.4 by 19F NMR analysis; format: physicochemical
[6] = Membrane retention, RM of the compound; format: physicochemical
[7] = Chromatographic hydrophobicity index in immobilized artificial membrane at pH 7.4 by HPLC method; format: ADME, cell membranes
[8] = Metabolic stability in mouse liver microsomes assessed as parent compound remaining at 100 uM measured after 60 mins by HPLC-UV analysis; format: ADME, microsome; settings: for Stability: microsomes, 1 h, 100 µM; for remaining at 1 h, 100 µM: liver microsomes, read-out: Stability
in vitro = settings: PAMPA
Description: Effective permeability of the compound by PAMPA assay

[9] = target: T1, Protein-glutamine gamma-glutamyltransferase; experiment: Inhibition of TGase 2 in human A375 cells using R-I-Cad/DMC as substrate preincubated for 5 mins followed by substrate addition measured at 30 secs interval over 900 secs by fluorescence anisotropy assay; format: cell-based
Cavia porcellus = organism: Cavia porcellus; experiment: Irreversible inhibition of guinea pig TGase 2 using F-Cad/DMC as substrate at 30 uM preincubated for 30 mins followed by 1:100 dilution of compound-enzyme pre-incubated mixture at 30 secs interval over 900 secs by fluorescence anisotropy assay

Ki [4]	Rm [6]	CHI [7]	Papp (in vitro)	SMILES	also measured
–	–	–	–	CCN(CC)c1ccc2c(-c3ccccc3C(=O)N3CCC(C(=O)NCCCCCN)CC3)c3ccc(=[N+](CC)CC)cc-3oc2c1	Ki [1]: 6.81 µM; Ki [2]: 7.14 µM
–	–	–	–	C=CC(=O)NCCCC[C@H](NC(=O)Cc1ccccc1)C(=O)N1CCN(c2cccc(I)n2)CC1	IC50 [1]: 0.14 µM; Ki [3]: 2.92 µM
2.52 µM	–	–	–	C=CC(=O)NCCCC[C@H](NC(=O)Cc1ccccc1)C(=O)N1CCN(c2ccc([N+](=O)[O-])cc2)CC1	–
–	–	–	–	CCC(=O)NCCCC[C@H](NC(=O)Cc1ccccc1)C(=O)N1CCN(c2ccc([N+](=O)[O-])nc2)CC1	Ki [3]: 15 µM
5.02 µM	9%	28.3	1.97 ×10⁻⁶ cm/s	C=CC(=O)NCCCC[C@H](NC(=O)Cc1ccc(F)cc1)C(=O)N1CCN(c2ccc([N+](=O)[O-])nc2)CC1	logD [5]: 1.85; Stability [8]: Stable
–	–	–	4.04 ×10⁻⁶ cm/s	COCCc1ccc(OCC(O)CNC(C)C)cc1 (stereo not given) [METOPROLOL]	–
7.96 µM	–	–	–	C=CC(=O)NCCCC[C@H](NC(=O)Nc1ccccc1)C(=O)N1CCN(c2ccc([N+](=O)[O-])nc2)CC1	–
–	24%	30.9	12.5 ×10⁻⁶ cm/s	C=CC(=O)NCCCC[C@H](NC(=O)Cc1cccc(F)c1)C(=O)N1CCN(c2cccc(C)n2)CC1	–
–	16%	31.4	12.7 ×10⁻⁶ cm/s	C=CC(=O)NCCCC[C@H](NC(=O)c1ccc(F)cc1)C(=O)N1CCN(c2cccc(C)n2)CC1	logD [5]: 0.28
–	-1%	29.4	8.77 ×10⁻⁶ cm/s	C=CC(=O)NCCCC[C@H](NC(=O)Cc1ccccc1)C(=O)N1CCN(c2cccc(C)n2)CC1	IC50 [1]: 0.31 µM; IC50 [2]: 0.27 µM; IC50 [9]: 0.79 µM; inhibition (Cavia porcellus): Active; remaining at 1 h, 100 µM [8]: 62%; Ki [3]: 5.73 µM
7.55 µM	–	–	–	C=CC(=O)NCCCC[C@H](NC(=O)Cc1ccccc1)C(=O)N1CCN(c2cccc(C)c2)CC1	–
6.77 µM	11%	31.8	8.98 ×10⁻⁶ cm/s	C=CC(=O)NCCCC[C@H](NC(=O)Cc1ccccc1)C(=O)N1CCN(c2ccc(C(F)(F)F)nc2)CC1	logD [5]: 2.13; Stability [8]: Stable
4.49 µM	21%	30.1	11.4 ×10⁻⁶ cm/s	C=CC(=O)NCCCC[C@H](NC(=O)Cc1ccccc1F)C(=O)N1CCN(c2cccc(C)n2)CC1	–
14 µM	12%	28.5	4.08 ×10⁻⁶ cm/s	C=CC(=O)NCCCC[C@H](NC(=O)c1ccc(F)cc1)C(=O)N1CCN(c2ccc([N+](=O)[O-])nc2)CC1	logD [5]: 2.21; Stability [8]: Stable
–	–	–	–	C=CC(=O)NCCCC[C@H](NC(=O)Cc1ccccc1)C(=O)N1CCN(c2cccc(OCCF)n2)CC1	IC50 [1]: 0.39 µM; IC50 [2]: 0.27 µM; Ki [3]: 7.32 µM
14.3 µM	–	–	–	C=CC(=O)NCCCC[C@H](NC(=O)C(F)(F)F)C(=O)N1CCN(c2cccc(-c3ccccc3)n2)CC1	–
–	64%	39	21.9 ×10⁻⁶ cm/s	C=CC(=O)NCCCC[C@H](NC(=O)Cc1ccccc1)C(=O)N1CCN(c2cccc(-c3ccccc3)n2)CC1	IC50 [1]: 0.2 µM; IC50 [2]: 0.15 µM; Ki [3]: 7.76 µM
–	38%	37.7	7.68 ×10⁻⁶ cm/s	C=CC(=O)NCCCC[C@H](NC(=O)Cc1ccccc1)C(=O)N1CCN(S(=O)(=O)c2cccc3c(N(C)C)cccc23)CC1	–
–	–	–	–	NCCCCCNC(=S)Nc1ccc2c(c1)C(=O)OC21c2ccc(O)cc2Oc2cc(O)ccc21	Ki [2]: 9.15 µM
2.55 µM	31%	25.4	0.51 ×10⁻⁶ cm/s	C=CC(=O)NCCCC[C@H](NC(=O)Cc1ccccc1)C(=O)N1CCN(c2ccncc2)CC1	Stability [8]: Stable

Ki [4]	Rm [6]	CHI [7]	Papp (in vitro)	SMILES	also measured
5.56 µM	–	–	–	C=CC(=O)NCCCC[C@H](NC(=O)Cc1cccs1)C(=O)N1CCN(c2cccc(C)n2)CC1	–
–	–	–	–	C=CC(=O)NCCCC[C@H](NC(=O)Cc1ccc(I)cc1)C(=O)N1CCN(c2cccc(C)n2)CC1	IC50 [2]: 0.16 µM
–	–	–	–	C=CC(=O)NCCCC[C@H](NC(=O)Cc1ccccc1)C(=O)N1CCN(c2ccccn2)CC1	IC50 [1]: 0.34 µM; IC50 [2]: 0.31 µM; Stability [8]: Unstable; Ki [3]: 8.42 µM
–	–	–	–	C=CC(=O)NCCCC[C@@H](NC(=O)Cc1ccccc1)C(=O)N1CCN(c2cccc(C)n2)CC1	IC50 [2]: 0.79 µM
7.6 µM	12%	32	10.3 ×10⁻⁶ cm/s	C=CC(=O)NCCCC[C@H](NC(=O)Cc1ccccc1)C(=O)N1CCN(Cc2ccc(F)cc2)CC1	logD [5]: 2.65
–	69%	39.5	21.9 ×10⁻⁶ cm/s	C=CC(=O)NCCCC[C@H](NC(=O)Cc1ccccc1)C(=O)N1CCN(c2cccc(C(C)(C)C)n2)CC1	IC50 [1]: 0.17 µM; Ki [3]: 3.5 µM
–	10%	32.4	11.4 ×10⁻⁶ cm/s	C=CC(=O)NCCCC[C@H](NC(=O)Cc1ccc(F)cc1)C(=O)N1CCN(c2cccc(C)n2)CC1	logD [5]: 0.36
–	11%	34.3	12.5 ×10⁻⁶ cm/s	C=CC(=O)NCCCC[C@H](NC(=O)Nc1ccc(F)cc1)C(=O)N1CCN(c2cccc(C)n2)CC1	IC50 [2]: 0.46 µM; logD [5]: 0.47
10.9 µM	4%	26.8	3.54 ×10⁻⁶ cm/s	C=CC(=O)NCCCC[C@H](NC(=O)Cc1ccccc1)C(=O)N1CCN(c2ccc(F)nc2)CC1	logD [5]: 1.66
7.12 µM	–	–	–	C=CC(=O)NCCCC[C@H](NC(=O)Cc1ccccc1)C(=O)N1CCN(c2ccc(C(=O)OC)nc2)CC1	–
–	–	–	–	C=CC(=O)NCCCC[C@H](NC(=O)Cc1ccccc1)C(=O)N1CCN(c2cccc(Cl)n2)CC1	IC50 [1]: 0.18 µM; IC50 [2]: 0.16 µM; Ki [3]: 4.43 µM
2.6 µM	–	–	–	C=CC(=O)NCCCC[C@H](NC(=O)Cc1ccccc1)C(=O)N1CCN(c2cccnc2)CC1	–
5.72 µM	–	–	–	C=CC(=O)NCCCC[C@H](NC(=O)Cc1ccccc1)C(=O)N1CCN(c2ccc(C(N)=O)nc2)CC1	–
13.4 µM	-3%	25	3.05 ×10⁻⁶ cm/s	C=CC(=O)NCCCC[C@H](NC(=O)Cc1ccccc1)C(=O)N1CCN(C(=O)c2ccc(F)cc2)CC1	logD [5]: 1.6; remaining at 1 h, 100 µM [8]: 85%
–	–	–	–	C=CC(=O)NCCCC[C@H](NC(=O)Cc1ccccc1)C(=O)N1CCN(c2cccc(Br)n2)CC1	IC50 [1]: 0.22 µM; IC50 [2]: 0.2 µM; Ki [3]: 5.65 µM
–	–	–	0.06 ×10⁻⁶ cm/s	NS(=O)(=O)c1cc2c(cc1Cl)NCNS2(=O)=O [HYDROCHLOROTHIAZIDE]	–
–	–	–	–	CCC(=O)NCCCC[C@H](NC(=O)Cc1ccccc1)C(=O)N1CCN(c2cccc(C)n2)CC1	Ki [3]: 64.3 µM
7.71 µM	–	–	–	C=CC(=O)NCCCC[C@H](NC(=O)Cc1ccccc1)C(=O)N1CCN(C(=O)c2ccc([N+](=O)[O-])cc2)CC1	–
1.98 µM	12%	30.7	8.74 ×10⁻⁶ cm/s	C=CC(=O)NCCCC[C@H](NC(=O)Cc1ccccc1F)C(=O)N1CCN(c2cccc([N+](=O)[O-])n2)CC1	logD [5]: 2.25
